We go through 1 molecule from EP1607399B1 (priority 2000, dated 2001).

The test concerns RPMI 8322 human melanoma cells. It counts as cell-based. The following applies: read-out: µM to 50% cell viability.

Regarding `Cc1ccc(S(=O)(=O)NCCOP(=O)(N(CCCl)CCCl)N(CCCl)CCCl)cc1` [Compound 23], the IC50 is more than 500 µM.
